# Laboratory results: US10752626B2, “Iso-citrate dehydrogenase (IDH) inhibitor” (SHANGHAI METON PHARMACEUTICAL CO., LTD, priority 2016, dated 2020)
# Biological target: IDH1 R132C (Homo sapiens (Human), UniProt O75874, R132C)
# Assay: Biochemical assay for inhibition of mutant IDH1 R132C
# Conditions: tested in triplet
# Source text: The present disclosure provides a biochemical assay method for detecting the IDH inhibition and selectivity of the compounds by detecting IDH enzyme activity directly.
# Wild-type IDH enzyme could convert NADP^+ to NADPH when it catalyzes the α-KG producing reaction. Mutant IDH enzyme could convert NADPH to NADP^+ when it catalyzes the D-2-HG producing reaction. So the activity of wild-type and mutant IDH1/2 could be measured by monitoring NADPH level change: in the reaction catalyzed by wild-type IDH1/2, the newly generated NADPH is utilized instantly by coupled diaphorase-resazurin reaction to generate resorufin which is fluorescent (at Excitation 544 nm, Emission 590 nm) and thus NADPH is monitored indirectly; while in the reaction catalyzed by mutant IDH1/2, NADPH is directly monitored as it is fluorescent (at Excitation 340 nm, Emission 460 nm). By monitoring the change of NADPH level in the reaction, the enzyme activity could be determined rapidly and efficiently, IC50 of a compound could also be assayed.
# The test compounds were prepared into 50 mM stock solutions in DMSO and stored at −20° C. Each test compound stock was further diluted to obtain a 100× stock solution at a concentration of 200 μM, 100 μM, 50 μM, 25 μM, 12.5 jμM, 6.25 μM and 3.125 μM, respectively, for the final use on the day of test.
# Inhibition of Mutant IDHJ (R132H or R132C):
# Solution A was prepared by combining 1 M Tris-HCl pH7.5 (300 μL), 5 M NaCl (450 μL), 1 M MgCl2 (150 μL), 1 M DTT (15 μL), 20 mg/mL BSA (37.5 μL), 20 mM NADPH (20 μL), and 0.5 mM α-KG (40 μL), followed by adding deionized water to a final volume of 15 mL.
# Reaction buffer was prepared by combining 1 M Tris-HCl pH 7.5 (200 μL), 5 M NaCl (300 μL), 1 M MgCl2 (100 μL), 1 M DTT (10 μL) and 20 mg/mL BSA (25 μL), followed by adding deionized water to a final volume of 10 mL.
# Solution B was prepared by combining the reaction buffer (5 mL) and […] IDH1-R132H (5.21 μL) or 107 μM IDH1-R132C (4.67 μL).
# 148 μL Solution A was added into each sample well of a 96-well plate P1, and then 2 μL of the test compound solution at each concentration and 2 μL of DMSO (negative control/blank) were added into individual sample well respectively. 50 μL of Solution B was added into each of the sample wells having test compounds and one sample well having DMSO only, and 50 μL of reaction buffer was added into another sample well having DMSO only, respectively. P1 was put into BioTek Synergy H4 Microplate reader (BioTek Instruments Inc., Winooski, U.S.), and the program was set as follows: 37° C., shake plate 5 seconds, run kinetic mode, total detection time 20 min, detection intervals 40 seconds, detection mode fluorescence (at Excitation 340 nm, Emission 460 nm). The data were exported, the relative enzyme activity and the half-maximal inhibitory concentration (IC50) for the test compound were calculated. Relative enzyme activity was calculated as the absolute value of the slope of the Emission 460 reads of each well plotted against time (which represents the conversion rate of ca-KG to 2-HG through IDH1 modulated utilization of NADPH). The Dose-response curve was drawn and the IC50 was calculated via fitting. The IDH inhibition and selectivity of each test compound can be evaluated according to the effect of the compounds on the IDH enzyme activity.
# The IDH inhibition activity of the compounds were assessed according to Test 5 of the Biological evaluation section. The test for mutant IDH1 R132H/R132C inhibition of each compound was carried out in triplet. For IDH1 R132H, the enzyme activity of exemplary Compounds 16, 21, 22, 23, 24 and 31 is plotted as a function of logarithm of the concentration of the compound in FIGS. 8A-8C, 9A-9C, 10A-10C, 11A-11C, 12A-12C and 13A-13C, respectively. […]
# IDH1 R132C, sequence (O75874 whole entry R132C): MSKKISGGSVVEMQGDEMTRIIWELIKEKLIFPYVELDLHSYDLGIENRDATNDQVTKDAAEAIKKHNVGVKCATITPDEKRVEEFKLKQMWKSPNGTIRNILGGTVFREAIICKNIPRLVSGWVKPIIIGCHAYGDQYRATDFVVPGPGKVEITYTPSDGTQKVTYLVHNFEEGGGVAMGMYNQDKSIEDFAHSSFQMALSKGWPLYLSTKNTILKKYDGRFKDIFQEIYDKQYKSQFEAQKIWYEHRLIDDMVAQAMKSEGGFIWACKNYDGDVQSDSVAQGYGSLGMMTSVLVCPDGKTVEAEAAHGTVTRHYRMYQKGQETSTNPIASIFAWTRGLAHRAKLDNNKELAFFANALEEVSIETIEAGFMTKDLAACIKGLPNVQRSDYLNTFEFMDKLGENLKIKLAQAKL
row,Compound,IC50
1,"CCN1Cc2c(ccnc2N[C@@H](C)c2ccc(Oc3ccc(C)cc3)cc2)C1=O [Compound 16, (S)-2-ethyl-4-(1-(4-(p-tolyloxy)phenyl)ethylamino)-2,3-dihydro-1H-pyrrolo [3,4-c]pyridin-1-one]",< 1500 nM
2,"CCN1Cc2c(ccnc2N[C@@H](C)c2ccc(Oc3ccccc3)c(F)c2)C1=O [Compound 23, (S)-2-ethyl-4-((1-(3-fluoro-4-phenoxyphenyl)ethyl)amino)-2,3-dihydro-1H-pyrrolo[3,4-c]pyridin-1-one]",< 1500 nM
